Results as given in article PMC8073719, “Biochemical and Biophysical Characterization of Recombinant Human 3-Phosphoglycerate Dehydrogenase” (International Journal of Molecular Sciences, 2021).
Values joined by “and” are separate entries in the source; they are usually repeats but may differ in a detail not shown here. Identical values can stand only once. “Also recorded” adds a separate entry of the source. Like-named read-outs stand apart in the source and are kept apart here. Blank lines part the entries; values can stand above or below the compound they belong to.

Assays:
hPHGDH [1] = molecular target: T1, hPHGDH (Homo sapiens, UniProt O43175); test: Effect of salts, phosphate and serine synthesis metabolites on hPHGDH activity (hydrazine assay); assay type: biochemical; parameters: His-tagged full-length hPHGDH was expressed in BL21(DE3) E. coli cells; made in house; host or cells: E. coli BL21(DE3); conditions: for decrease of hPHGDH activity: […] 3PG
T1 sequence (O43175 1-533): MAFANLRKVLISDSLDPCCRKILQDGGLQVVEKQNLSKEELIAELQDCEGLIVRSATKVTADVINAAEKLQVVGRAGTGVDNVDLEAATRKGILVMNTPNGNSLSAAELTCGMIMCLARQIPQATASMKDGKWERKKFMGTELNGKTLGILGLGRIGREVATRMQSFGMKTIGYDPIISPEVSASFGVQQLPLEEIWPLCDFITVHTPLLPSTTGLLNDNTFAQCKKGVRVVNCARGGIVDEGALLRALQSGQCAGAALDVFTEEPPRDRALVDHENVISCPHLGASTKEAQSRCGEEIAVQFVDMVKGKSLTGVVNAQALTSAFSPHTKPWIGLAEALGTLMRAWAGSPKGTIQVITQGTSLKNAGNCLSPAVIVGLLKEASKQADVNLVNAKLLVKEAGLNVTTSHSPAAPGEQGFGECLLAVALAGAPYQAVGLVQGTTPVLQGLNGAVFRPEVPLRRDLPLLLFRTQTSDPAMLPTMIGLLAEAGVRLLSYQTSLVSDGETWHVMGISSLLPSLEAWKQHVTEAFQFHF
Text: The effects of KCl, NaCl, MgCl2 and CaCl2 and of pH and temperature on enzyme activity and stability were investigated using the hydrazine assay. […] The dependence of activity on pH was fitted using an equation for three pKa values, according to [44], providing apparent values unrelated to microscopic ones.

hPHGDH [2] = molecular target: T1, hPHGDH; test: Limited proteolysis with trypsin, SDS-PAGE; parameters: His-tagged full-length hPHGDH was expressed in BL21(DE3) E. coli cells; made in house; host or cells: E. coli BL21(DE3); conditions: 5% (w/w) trypsin; 250 mM potassium phosphate, 500 mM sodium tartrate or 0.1 mM NCT-503
Procedure: hPHGDH at 0.4 mg/mL was incubated at 25 °C in 50 mM Hepes pH 7.5, 100 mM NaCl, 10% (v/v) glycerol, 1 mM EDTA and 5 mM 2-mercaptoethanol in the presence of 5% (w/w) trypsin (Roche, Basel, Switzerland). […] At different times (0, 30, 60, 120 and 240 min), 8 µg of protein was diluted in SDS-sample buffer, heated at 95 °C for 5 min and analyzed by SDS-PAGE.

hPHGDH [3] = molecular target: T1, hPHGDH; test: hPHGDH reverse reaction kinetics (decrease in NADH fluorescence at 450 nm); conditions: reverse reaction, 5 mM NADH
Text: (§1) The latter assay was used to determine the apparent kinetic parameters on alternative substrates.

hPHGDH [4] = molecular target: T1, hPHGDH; test: hPHGDH forward reaction kinetics (PSAT-coupled or hydrazine assay, NADH fluorescence); assay type: biochemical; parameters: His-tagged full-length hPHGDH was expressed in BL21(DE3) E. coli cells; made in house; host or cells: E. coli BL21(DE3)
Procedure: PSAT was added to drive the reaction and to avoid product inhibition of hPHGDH.
as §1

E. coli PHGDH = conditions: reverse reaction; cited from earlier work
hPHGDH [5] = molecular target: T1, hPHGDH; parameters: His-tagged full-length hPHGDH was expressed in BL21(DE3) E. coli cells; made in house; host or cells: E. coli BL21(DE3); conditions: cited from earlier work
hPHGDH [6] = molecular target: T1, hPHGDH; test: Inhibition of hPHGDH activity by inhibitors (hydrazine assay); assay type: biochemical; parameters: His-tagged full-length hPHGDH was expressed in BL21(DE3) E. coli cells; made in house; host or cells: E. coli BL21(DE3); conditions: kinetics on 3PG at increasing inhibitor concentration
hPHGDH [7] = molecular target: T1, hPHGDH; test: Ligand binding by quenching of protein fluorescence at 330 nm
Procedure: Protein fluorescence spectra were measured at 0.06–0.1 mg/mL protein concentration in 10 mM potassium phosphate, pH 7.0, 15 °C; spectra were recorded using a Jasco FP-750 instrument and were corrected for the buffer contribution. Protein fluorescence spectra were recorded between 300 and 450 nm, with excitation at 280 and 298 nm.
All recorded spectra were subtracted for the contribution of the ligand (added to the buffer only) and were corrected for dilution at every addition. […] In all cases, Kd values were determined by fitting the data to a hyperbolic function.

hPHGDH [8] = molecular target: T1, hPHGDH; test: Temperature-ramp unfolding (melting temperature) with cofactors; assay type: binding; parameters: His-tagged full-length hPHGDH was expressed in BL21(DE3) E. coli cells; made in house; host or cells: E. coli BL21(DE3)
Procedure: Temperature-ramp experiments were performed in 10 mM potassium phosphate, pH 7.0. For this, a software-driven, Peltier-equipped fluorimeter was used to measure the protein fluorescence change at 330 nm or a CD spectropolarimeter to follow the CD signal at 280 nm in order to reproduce a temperature gradient (0.5 °C/min) [31].

[9] = substrate varied, […] NAD+, hydrazine assay, Figure S3B,D-F

Structure (SMILES): O=P(O)(O)O [potassium phosphate]
activity lost (hPHGDH [1]; at 1 mM potassium phosphate): 30% | effect on enzymatic activity (hPHGDH [1]; at 400 mM phosphate): fully abrogated | proteolysis of the full-length enzyme (hPHGDH [2]): hampered

Structure (SMILES): O=C(O)CC(=O)C(=O)O [Oxaloacetate]
maximal rate of fit with substrate inhibition (hPHGDH [3]; Figure S4A,C,D): 1.7591

Structure (SMILES): [Cl-].[K+] [KCl]
decrease of hPHGDH activity (hPHGDH [1]; at 10 mM KCl, […] NAD+): 40% | initial activity lost (hPHGDH [1]; at ≥10 mM KCl): 30%

Structure (SMILES): N[C@H](CO)C(=O)O [D-serine]
decrease of hPHGDH activity (hPHGDH [1]; at 250 mM D-serine): ~ 25%

Structure (SMILES): O=C([O-])C(O)C(O)C(=O)[O-].[Na+].[Na+] (centres unmarked) [sodium tartrate]
proteolysis of the full-length enzyme (hPHGDH [2]): hampered

Structure (SMILES): O=C(O)CCC(=O)C(=O)O [α-Ketoglutarate]
Ki (hPHGDH [3]; Ki (substrate inhibition), 37 °C, pH 7.0): 13300 µM | Ki (hPHGDH [3]; Ki of fit with substrate inhibition, Figure S4A,C,D): 13300 µM | Km (E. coli PHGDH): 500 µM | Km (hPHGDH [5]; commercial enzyme preparation): ~10000 µM

Structure (SMILES): [Cl-].[Na+] [NaCl]
initial activity lost (hPHGDH [1]; at >20 mM NaCl): 30%

Structure (SMILES): Cc1cc(C)nc(NC(=S)N2CCN(Cc3ccc(C(F)(F)F)cc3)CC2)c1 [NCT-503]
mechanism of inhibition (hPHGDH [6]): noncompetitive inhibitor; also recorded: noncompetitive inhibition mechanism | proteolysis of the full-length enzyme (hPHGDH [2]): to a lesser extent

Structure (SMILES): NC(=O)c1ccc[n+]([C@@H]2O[C@H](COP(=O)(O)OP(=O)(O)OC[C@H]3O[C@@H](n4cnc5c(N)ncnc54)[C@H](O)[C@@H]3O)[C@@H](O)[C@H]2O)c1 [NAD^+]
Kd (hPHGDH [7]; Kd (NAD^+; main phase of NADH binding), discussion value): ~130 µM | Kd (hPHGDH [7]; Kd, quenching of protein fluorescence at 15 °C, 1 μM enzyme, monophasic): 130 µM | maximal rate of Michaelis–Menten fit (hPHGDH [4]; NAD+ varied, 2.5 mM 3PG, PSAT-coupled assay, Figure S3C): 2.039 | maximal rate of Michaelis–Menten fit (hPHGDH [4]; NAD+ varied, 2.5 mM 3PG, hydrazine assay, Figure S3C): 2.4118 | Tm, circular dichroism signal at 280 nm (hPHGDH [8]; 120 µM NAD^+ or 100 µM NADH, protein alone 47.5): 48.2 °C | Tm, CD (220 nm) (hPHGDH [8]; +120 μM NAD^+ or +100 μM NADH, hPHGDH alone 47.2 ± 0.5): 48.2 ± 1.7 °C | Tm, Fluorescence (330 nm) (hPHGDH [8]; +120 μM NAD^+ or +100 μM NADH, hPHGDH alone 48.4 ± 2.1): 52.4 °C and 52.4 ± 0.4 °C

Structure (SMILES): CC(O)CC(=O)O [D-3-Hydroxybutyrate]
maximal rate of Michaelis–Menten fit (hPHGDH [4]; [9]): 2.527

Second part, led by results:

maximal rate of Michaelis–Menten fit (hPHGDH [4]; [9]): 0.4351
Structure (SMILES): O=C(O)C[C@@H](O)C(=O)O [D-Malate]

maximal rate of Michaelis–Menten fit (hPHGDH [4]; [9]): 0.4125
Structure (SMILES): O=C(O)[C@@H](O)[C@H](O)C(=O)O [D-Tartrate]

maximal rate of Michaelis–Menten fit (hPHGDH [4]; [9]): 5.407
Structure (SMILES): C[C@@H](O)C(=O)O [D-Lactate]

maximal rate of Michaelis–Menten fit (numerator of y = a x/(b + x)) (hPHGDH [4]; 3PG varied, 120 µM NAD+, PSAT-coupled assay, Figure S3A): 1.282 | maximal rate of Michaelis–Menten fit (hPHGDH [4]; 3PG varied, 120 µM NAD+, hydrazine assay, Figure S3A): 1.5348 | kcat (hPHGDH [4]; forward reaction, substrate varied, 120 µM NAD^+, PSAT-coupled (1) and hydrazine (2) assays, 37 °C, 25 mM Hepes pH 7.0, per monomer): 1.5 s⁻¹ | Km (hPHGDH [4]; forward reaction, substrate varied, 120 µM NAD^+, PSAT-coupled (1) and hydrazine (2) assays, 37 °C, pH 7.0): 260 µM | maximal rate of Michaelis–Menten fit (hPHGDH [4]; [9]): 2.972
Structure (SMILES): O=C(O)C(O)COP(=O)(O)O [3PG, D-3-phosphoglycerate]
Hill coefficient n (hPHGDH [5]; negative cooperativity in a previous work): 0.63–0.67
